Laboratory results: ChEMBL document CHEMBL4725429, “Discovery and Evaluation of Pyrazolo[3,4-d]pyridazinone as a Potent and Orally Active Irreversible BTK Inhibitor” (ACS Med Chem Lett, 2020)

Key:
[1] = Cmax in BALB/c mouse 2 mg/kg, po measured upto 24 hrs by LC-MS/MS analysis; format: ADME, organism-based; design: route oral, dose 2 mg/kg, time <=24; details: in vivo
[2] = AUC in BALB/c mouse 2 mg/kg, po measured upto 24 hrs by LC-MS/MS analysis; format: ADME, organism-based; design: route oral, dose 2 mg/kg, time <=24; details: in vivo
[3] = biological target: Tyrosine-protein kinase BTK (Homo sapiens, UniProt Q06187); test: Inhibition of recombinant human His-tagged full length BTK expressed in baculovirus expression system using TK1 as substrate incubated for 60 mins by HTRF assay
Sequence of Tyrosine-protein kinase BTK (Q06187 whole entry): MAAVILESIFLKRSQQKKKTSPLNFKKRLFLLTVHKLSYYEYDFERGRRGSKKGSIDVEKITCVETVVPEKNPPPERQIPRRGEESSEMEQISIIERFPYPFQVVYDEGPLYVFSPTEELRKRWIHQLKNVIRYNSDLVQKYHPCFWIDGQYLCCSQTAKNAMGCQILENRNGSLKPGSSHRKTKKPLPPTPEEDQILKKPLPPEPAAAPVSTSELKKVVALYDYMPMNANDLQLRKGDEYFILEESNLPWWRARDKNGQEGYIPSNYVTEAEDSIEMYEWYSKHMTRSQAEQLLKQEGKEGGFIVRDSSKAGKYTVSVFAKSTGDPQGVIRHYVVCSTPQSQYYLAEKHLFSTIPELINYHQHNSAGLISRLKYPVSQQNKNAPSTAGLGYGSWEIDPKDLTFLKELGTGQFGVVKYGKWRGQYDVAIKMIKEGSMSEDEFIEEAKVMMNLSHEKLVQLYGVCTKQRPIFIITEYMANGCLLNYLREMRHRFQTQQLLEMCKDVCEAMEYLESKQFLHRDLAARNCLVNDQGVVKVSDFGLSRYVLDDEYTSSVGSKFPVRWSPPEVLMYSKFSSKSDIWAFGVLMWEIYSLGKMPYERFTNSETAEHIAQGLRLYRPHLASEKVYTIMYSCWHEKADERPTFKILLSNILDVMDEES

[4] = Oral bioavailability in Sprague-Dawley rat at 10 mg/kg measured upto 24 hrs by LC-MS/MS analysis; format: ADME, organism-based; details: in vivo
[5] = Oral bioavailability in BALB/c mouse at 2 mg/kg measured upto 24 hrs by LC-MS/MS analysis; format: ADME, organism-based; details: in vivo
[6] = AUC (0 to last) in Sprague-Dawley rat at 2 mg/kg, iv measured upto 24 hrs by LC-MS/MS analysis; format: ADME, organism-based; design: route intravenous, dose 2 mg/kg, time <=24; details: in vivo
[7] = Protein binding in mouse plasma at 2 uM incubated for 4 hrs by LC-MS/MS analysis; format: ADME, cell-free; details: read-out: PPB (converted)
[8] = Cmax in Sprague-Dawley rat at 2 mg/kg, iv measured upto 24 hrs by LC-MS/MS analysis; format: ADME, organism-based; design: route intravenous, time <=24; details: in vivo
[9] = AUC (0 to last) in BALB/c mouse at 1 mg/kg, iv measured upto 24 hrs by LC-MS/MS analysis; format: ADME, organism-based; design: route intravenous, dose 1 mg/kg, time <=24; details: in vivo
[10] = Half life in Sprague-Dawley rat at 2 mg/kg, iv measured upto 24 hrs by LC-MS/MS analysis; format: ADME, organism-based; details: in vivo
[11] = Half life in BALB/c mouse at 1 mg/kg, iv measured upto 24 hrs by LC-MS/MS analysis; format: ADME, organism-based; details: in vivo
[12] = Protein binding in rat plasma at 2 uM incubated for 4 hrs by LC-MS/MS analysis; format: ADME, cell-free; details: read-out: PPB (converted)
[13] = AUC (0 to last) in Sprague-Dawley rat at 10 mg/kg, po measured upto 24 hrs by LC-MS/MS analysis; format: ADME, organism-based; design: route oral, dose 10 mg/kg, time <=24; details: in vivo
[14] = Protein binding in human plasma at 2 uM incubated for 4 hrs by LC-MS/MS analysis; format: ADME, cell-free; details: read-out: PPB (converted)
[15] = biological target: Cytochrome P450 2C9 (Homo sapiens, UniProt P11712); test: Inhibition of human liver microsome CYP2C9 using diclofenac as substrate preincubated for 10 mins followed by substrate and NADPH addition and measured after 10 mins by LC-MS/MS analysis
Sequence of Cytochrome P450 2C9 (P11712 whole entry): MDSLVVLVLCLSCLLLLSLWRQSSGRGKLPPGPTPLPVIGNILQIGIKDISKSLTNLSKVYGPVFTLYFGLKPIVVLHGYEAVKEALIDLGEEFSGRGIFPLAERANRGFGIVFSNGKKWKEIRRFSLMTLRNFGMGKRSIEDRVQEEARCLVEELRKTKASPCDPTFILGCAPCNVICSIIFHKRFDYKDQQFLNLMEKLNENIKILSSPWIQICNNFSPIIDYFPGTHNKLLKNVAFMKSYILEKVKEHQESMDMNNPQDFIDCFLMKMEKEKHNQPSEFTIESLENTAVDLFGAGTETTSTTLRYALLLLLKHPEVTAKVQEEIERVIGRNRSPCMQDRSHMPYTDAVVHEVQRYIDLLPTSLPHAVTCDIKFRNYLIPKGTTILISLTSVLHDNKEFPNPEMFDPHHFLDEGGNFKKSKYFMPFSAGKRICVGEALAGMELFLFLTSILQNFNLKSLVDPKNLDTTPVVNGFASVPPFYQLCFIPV

[16] = biological target: Cytochrome P450 2D6 (Homo sapiens, UniProt P10635); test: Inhibition of human liver microsome CYP2D6 using dextromethorphan as substrate preincubated for 10 mins followed by substrate and NADPH addition and measured after 10 mins by LC-MS/MS analysis
Sequence of Cytochrome P450 2D6 (P10635 whole entry): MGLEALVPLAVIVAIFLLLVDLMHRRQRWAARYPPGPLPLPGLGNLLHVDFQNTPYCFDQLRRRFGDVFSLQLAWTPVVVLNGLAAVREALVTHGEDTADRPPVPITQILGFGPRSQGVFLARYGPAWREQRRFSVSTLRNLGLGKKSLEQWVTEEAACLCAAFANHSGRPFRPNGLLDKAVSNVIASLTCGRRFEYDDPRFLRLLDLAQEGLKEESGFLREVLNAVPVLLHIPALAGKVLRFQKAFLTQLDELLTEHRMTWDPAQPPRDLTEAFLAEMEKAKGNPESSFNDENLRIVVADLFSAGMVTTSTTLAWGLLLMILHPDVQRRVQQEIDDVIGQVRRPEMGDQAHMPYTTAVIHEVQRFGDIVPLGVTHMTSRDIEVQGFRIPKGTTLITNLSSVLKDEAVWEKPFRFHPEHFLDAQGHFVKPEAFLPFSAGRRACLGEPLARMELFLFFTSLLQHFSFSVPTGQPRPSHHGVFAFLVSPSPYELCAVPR

[17] = tested on: Mus musculus; test: Antiarthritic activity in po dosed collagen-induced arthritis mouse model assessed as clinical score administered for 14 days and measured for 21 days after dosing; format: functional, organism-based; details: dose mg/kg 3-10, time 14.0 day
[18] = biological target: T1, Cytochrome P450 1A2 (Homo sapiens, UniProt P05177); test: Inhibition of human liver microsome CYP1A2 using phenacetin as substrate preincubated for 10 mins followed by substrate and NADPH addition and measured after 10 mins by LC-MS/MS analysis
T1 sequence (P05177 whole entry): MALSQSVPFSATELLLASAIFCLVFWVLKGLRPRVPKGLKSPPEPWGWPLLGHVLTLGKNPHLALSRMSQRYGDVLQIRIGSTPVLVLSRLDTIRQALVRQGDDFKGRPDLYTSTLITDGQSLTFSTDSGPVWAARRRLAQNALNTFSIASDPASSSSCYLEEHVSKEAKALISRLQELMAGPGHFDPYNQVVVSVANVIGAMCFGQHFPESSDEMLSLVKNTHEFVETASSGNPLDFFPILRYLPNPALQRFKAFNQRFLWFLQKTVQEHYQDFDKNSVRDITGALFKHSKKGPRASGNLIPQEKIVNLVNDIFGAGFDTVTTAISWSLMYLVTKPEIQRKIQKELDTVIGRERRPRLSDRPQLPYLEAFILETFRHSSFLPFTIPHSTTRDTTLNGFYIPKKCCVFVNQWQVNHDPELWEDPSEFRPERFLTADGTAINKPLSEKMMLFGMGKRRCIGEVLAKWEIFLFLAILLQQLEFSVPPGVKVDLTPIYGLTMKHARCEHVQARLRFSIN

[19] = Volume of distribution at steady state in Sprague-Dawley rat at 2 mg/kg, iv measured upto 24 hrs by LC-MS/MS analysis; format: ADME, organism-based; details: in vivo, read-out: Vdss
[20] = Toxicity in mouse assessed as drug tolerance at 3 and 10 mg/kg, po administered for 14 days and observed for 21 days; format: organism-based; details: in vivo, 336 h, dose 3-10 mg/kg, time 14 day
[21] = Toxicity in mouse assessed as body weight loss at 3 and 10 mg/kg, po administered for 14 days and observed for 21 days; format: organism-based; details: in vivo, 336 h, dose 3-10 mg/kg, time 14 day
[22] = biological target: Cytochrome P450 3A4 (Homo sapiens, UniProt P08684); test: Inhibition of human liver microsome CYP3A4 using midazolam as substrate preincubated for 10 mins followed by substrate and NADPH addition and measured after 10 mins by LC-MS/MS analysis
Sequence of Cytochrome P450 3A4 (P08684 whole entry): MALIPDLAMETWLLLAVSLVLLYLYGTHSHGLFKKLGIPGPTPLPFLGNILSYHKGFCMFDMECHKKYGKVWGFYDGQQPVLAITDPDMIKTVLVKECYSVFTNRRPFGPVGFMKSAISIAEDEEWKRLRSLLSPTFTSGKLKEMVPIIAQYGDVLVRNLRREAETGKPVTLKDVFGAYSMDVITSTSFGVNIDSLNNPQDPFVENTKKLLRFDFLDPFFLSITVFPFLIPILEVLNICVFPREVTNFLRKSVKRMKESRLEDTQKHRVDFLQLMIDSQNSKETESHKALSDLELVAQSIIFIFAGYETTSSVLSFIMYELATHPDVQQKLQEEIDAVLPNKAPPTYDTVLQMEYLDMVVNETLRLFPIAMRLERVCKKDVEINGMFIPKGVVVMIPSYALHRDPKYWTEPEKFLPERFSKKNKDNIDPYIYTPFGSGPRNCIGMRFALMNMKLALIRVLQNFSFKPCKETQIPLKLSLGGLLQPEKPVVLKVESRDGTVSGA

[23] = Clearance in Sprague-Dawley rat at 2 mg/kg, iv measured upto 24 hrs by LC-MS/MS analysis; details: in vivo
[24] = Volume of distribution at steady state in BALB/c mouse at 1 mg/kg, iv measured upto 24 hrs by LC-MS/MS analysis; format: ADME, organism-based; details: in vivo, read-out: Vdss
[25] = biological target: Cytochrome P450 2C19 (Homo sapiens, UniProt P33261); test: Inhibition of human liver microsome CYP2C19 using S-mephenytoin as substrate preincubated for 10 mins followed by substrate and NADPH addition and measured after 10 mins by LC-MS/MS analysis
Sequence of Cytochrome P450 2C19 (P33261 whole entry): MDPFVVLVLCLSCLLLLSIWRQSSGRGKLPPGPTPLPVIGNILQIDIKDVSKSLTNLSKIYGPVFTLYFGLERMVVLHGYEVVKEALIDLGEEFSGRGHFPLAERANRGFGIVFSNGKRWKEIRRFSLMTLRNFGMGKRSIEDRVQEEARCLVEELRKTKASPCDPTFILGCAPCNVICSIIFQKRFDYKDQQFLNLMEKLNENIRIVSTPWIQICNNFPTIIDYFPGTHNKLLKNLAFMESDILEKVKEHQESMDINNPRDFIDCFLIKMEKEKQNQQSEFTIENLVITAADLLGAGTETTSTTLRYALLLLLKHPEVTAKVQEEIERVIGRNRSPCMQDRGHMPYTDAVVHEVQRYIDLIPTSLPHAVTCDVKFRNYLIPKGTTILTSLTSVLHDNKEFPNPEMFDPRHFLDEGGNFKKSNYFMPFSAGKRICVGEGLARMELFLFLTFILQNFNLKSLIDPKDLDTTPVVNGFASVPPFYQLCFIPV

[26] = Clearance in BALB/c mouse at 1 mg/kg, iv measured upto 24 hrs by LC-MS/MS analysis; details: in vivo

C=CC(=O)N[C@H]1CC[C@@H](n2nc(-c3ccc(Oc4ccccc4)cc3)c3c(N)n[nH]c(=O)c32)CC1
Cmax [1]: 290 nM | AUC at 24 h [2]: 161 ng·h/mL | IC50 [3]: 1.6 nM

C=CC(=O)N1CCC[C@@H](Nc2ncnc(N)c2C(=O)c2ccc(Oc3ccccc3)cc2)C1
IC50 [3]: 921 nM

C=CC(=O)N1CC2(CC(n3nc(-c4ccc(Oc5ccccc5)cc4)c4c(N)n[nH]c(=O)c43)C2)C1
IC50 [3]: 46 nM

CC#CC(=O)N1CCC[C@@H](n2nc(-c3ccc(Oc4ccccc4)cc3)c3c(N)n[nH]c(=O)c32)C1
IC50 [3]: 12 nM

C=CC(=O)N1CCC[C@@H](Nc2ncnc(N)c2-n2ncc3cc(Oc4ccccc4)ccc32)C1
IC50 [3]: 1670 nM

C=CC(=O)N1CCC[C@@H](Nc2ncnc3[nH]c4ccc(Oc5ccccc5)cc4c(=O)c23)C1
IC50 [3]: > 10000 nM

C=CS(=O)(=O)N1CCC[C@@H](n2nc(-c3ccc(Oc4ccccc4)cc3)c3c(N)n[nH]c(=O)c32)C1
IC50 [3]: 4.2 nM

CN(C)C/C=C/C(=O)N1CCC[C@@H](n2nc(-c3ccc(Oc4ccccc4)cc3)c3c(N)n[nH]c(=O)c32)C1
IC50 [3]: 2.6 nM

C=CC(=O)N1CCC[C@@H](n2nc(-c3ccc(Oc4ccccc4)cc3)c3c(N)ncnc32)C1 [IBRUTINIB]
bioavailability [4]: 10.3% | bioavailability [5]: 1.8% | AUClast ([6]; 24 h): 643 ng·h/mL | fraction unbound at 4 h, 2 µM [7]: 0.038 | Cmax ([8]; 24 h): 150 ng/mL | AUC(0-t) at 24 h [9]: 628 ng·h/mL | t1/2 ([10]; 2 mg/kg, 24 h): 19.2 min | Cmax [1]: 55.3 nM | half-life [11]: 20.4 min | fraction unbound at 4 h, 2 µM [12]: 0.022 | AUC(0-t) at 24 h [13]: 318 ng·h/mL | AUC at 24 h [2]: 21.4 ng·h/mL | fraction unbound at 4 h, 2 µM [14]: 0.031

N#C/C(=C\C1CC1)C(=O)N1CCC[C@@H](n2nc(-c3ccc(Oc4ccccc4)cc3)c3c(N)n[nH]c(=O)c32)C1
IC50 [3]: 22 nM

C=CC(=O)N1CCC[C@@H](n2nc(-c3ccc(Oc4ccccc4)cc3)c3c(N)nn(C)c(=O)c32)C1
IC50 [3]: 160 nM

C=CC(=O)N1CCC[C@@H](n2nc(-c3ccc(Oc4ccccc4)cc3)c3c(N)noc(=O)c32)C1
IC50 [3]: > 1000 nM

C=CC(=O)N1CCCC(n2nc(-c3ccc(Oc4ccccc4)cc3)c3cc4c(N)noc4cc32)C1 (stereo not drawn)
IC50 [3]: 4660 nM

C=CC(=O)N1CCC[C@@H](n2nc(-c3ccc(Oc4ccccc4)cc3)c3c(N)n[nH]c(=O)c32)C1
IC50 [15]: 39600 nM | bioavailability [4]: 23.7% | IC50 [16]: > 100000 nM | bioavailability [5]: 11.2% | AUC(0-t) at 24 h ([6]; Sprague-Dawley): 604 ng·h/mL | fraction unbound at 4 h, 2 µM [7]: 0.047 | Activity [17]: Dose-dependent effect | Cmax ([8]; Sprague-Dawley, read-out: Cmax): 466 ng/mL | IC50 [18]: > 100000 nM | AUC(0-t) at 24 h [9]: 576 ng·h/mL | Vd [19]: 1.55 L/kg | Activity [20]: Non-Toxic | half-life ([10]; Sprague-Dawley): 19.2 min | Cmax [1]: 252 nM | Activity [21]: Non-Toxic | half-life [11]: 25.2 min | fraction unbound at 4 h, 2 µM [12]: 0.003 | AUC(0-t) at 24 h [13]: 642 ng·h/mL | IC50 [22]: 37300 nM | AUC at 24 h [2]: 128 ng·h/mL | IC50 [3]: 2.1 nM | clearance [23]: 54.6 mL/min/kg | Vd [24]: 0.82 L/kg | IC50 [25]: 43900 nM | fraction unbound at 4 h, 2 µM [14]: 0.025 | clearance [26]: 31.3 mL/min/kg

C=CC(=O)N1CCCCC(n2nc(-c3ccc(Oc4ccccc4)cc3)c3c(N)n[nH]c(=O)c32)C1 (stereo not drawn)
IC50 [3]: 6.7 nM

C=CC(=O)N1CCC[C@@H](n2nc(-c3ccc(Oc4ccccc4)cc3)c3c(N)nn(CC)c(=O)c32)C1
IC50 [3]: > 1000 nM

C=CC(=O)N1CCCC(n2nc(-c3ccc(Oc4ccccc4)cc3)c3cc4c(N)ncnc4cc32)C1 (stereo not drawn)
IC50 [3]: 1240 nM

C=CC(=O)N1CCC[C@@H](Nc2ncnc3[nH]c(=O)c(-c4ccc(Oc5ccccc5)cc4)cc23)C1
IC50 [3]: > 10000 nM

C=CC(=O)N(C)CCn1nc(-c2ccc(Oc3ccccc3)cc2)c2c(N)n[nH]c(=O)c21
Cmax [1]: 123 nM | AUC at 24 h [2]: 49.5 ng·h/mL | IC50 [3]: 1.2 nM

C=CC(=O)N1CC[C@@H](n2nc(-c3ccc(Oc4ccccc4)cc3)c3c(N)n[nH]c(=O)c32)C1
Cmax [1]: 137 nM | AUC at 24 h [2]: 68 ng·h/mL | IC50 [3]: 1.4 nM

C=CC(=O)N1CCC[C@@H](n2nc(-c3ccc(Oc4ccccc4)cc3)c3c(N)nn(CC(F)(F)F)c(=O)c32)C1
IC50 [3]: > 1000 nM

Nc1n[nH]c(=O)c2c1c(-c1ccc(Oc3ccccc3)cc1)nn2[C@@H]1CCCN(C(=O)/C=C/CN2CCOCC2)C1
IC50 [3]: 13 nM

C=CC(=O)N1CC(n2nc(-c3ccc(Oc4ccccc4)cc3)c3c(N)n[nH]c(=O)c32)C1
IC50 [3]: 9.8 nM

CN(C)C/C=C/C(=O)N(C)CCn1nc(-c2ccc(Oc3ccccc3)cc2)c2c(N)n[nH]c(=O)c21
IC50 [3]: 35 nM

C=CC(=O)NC1CCC[C@@H](n2nc(-c3ccc(Oc4ccccc4)cc3)c3c(N)n[nH]c(=O)c32)C1 (stereo partly drawn)
IC50 [3]: 10 nM
